In the NIST ThermoML archive (doi:10.1021/je060380p) one finds Normal melting temperature data, which are given here for one compound.

The conditions of the data set: Crystal; visual observation.

Numbers after ± are expanded uncertainties.

`c1ccc2cc3ccccc3cc2c1` [anthracene]: the Normal melting temperature was 216 ± 1 °C.
